Earlier results as cited in patent publication US10987305B2, “Preparation of respirable zafirlukast particles” (Hovione Scientia Limited, priority 2015, dated 2021).

Assays:
[1] = as disclosed in US 5,504,216 and related patents
[2] = as disclosed in US 5,504,216 and related patents; remark: listed apart in the source

| SMILES | Physical stability [1] | Bioavailability [2] |
| --- | --- | --- |
| COc1cc(C(=O)NS(=O)(=O)c2ccccc2C)ccc1Cc1cn(C)c2ccc(NC(=O)OC3CCCC3)cc12 [amorphous form, zafirlukast] | less physically stable | most bioavailable |
| COc1cc(C(=O)NS(=O)(=O)c2ccccc2C)ccc1Cc1cn(C)c2ccc(NC(=O)OC3CCCC3)cc12 [crystalline anhydrous form, zafirlukast] | physically stable | relatively poor bioavailability |
| COc1cc(C(=O)NS(=O)(=O)c2ccccc2C)ccc1Cc1cn(C)c2ccc(NC(=O)OC3CCCC3)cc12 [crystalline monohydrate form, zafirlukast] | physically stable | relatively poor bioavailability |
